Assay results taken from the supplement of paper PMC10883282.
± gives the standard deviation of the averaged measurements.

Tests used:
Test in all cases: relative viability vs DMSO control (72 h) (fraction); higher = more viable cells
A204 = tested on: A204
Outline: (§1)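 Sarcoma cell lines were grown in 384-well plates seeded toward 80–90% confluence and exposed 24 h later to serially diluted compound. After 72 h at 37 °C and 5% CO2, with 0.1% DMSO vehicle and a 5 µM positive control on the plates, ATPLite was read. Relative viability, given as percent growth averaged over up to triplicate wells, was rescaled so that 1 is full and 0 is none.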

G401 = tested on: G401
Outline: as §1

HS729 = tested on: HS729
Outline: as §1

KHOS-240S = tested on: KHOS-240S
Outline: as §1

MES-SA = tested on: MES-SA
Outline: as §1

SK-ES-1 = tested on: SK-ES-1
Outline: as §1

SK-LMS-1 = tested on: SK-LMS-1
Outline: as §1

SW1353 = tested on: SW1353
Outline: as §1

SW684 = tested on: SW684
Outline: as §1

SW872 = tested on: SW872
Outline: as §1

SW982 = tested on: SW982
Outline: as §1

SYO-1 = tested on: SYO-1
Outline: as §1

## COc1cc2nccc(Oc3ccc(NC(=O)NC4CC4)c(Cl)c3)c2cc1C(N)=O [Lenvatinib]
A204; 0.00017 µM
  relative viability: 1 ± 0.045
A204; 0.00051 µM
  relative viability: 1.04 ± 0.068
A204; 0.00152 µM
  relative viability: 1.03 ± 0.08
A204; 0.00457 µM
  relative viability: 1.02 ± 0.023
A204; 0.01372 µM
  relative viability: 0.79 ± 0.05
A204; 0.04115 µM
  relative viability: 0.551 ± 0.04
A204; 0.1235 µM
  relative viability: 0.406 ± 0.046
A204; 0.3704 µM
  relative viability: 0.345 ± 0.0098
A204; 1.111 µM
  relative viability: 0.267 ± 0.038
A204; 3.333 µM
  relative viability: 0.186 ± 0.0089
A204; 10 µM
  relative viability: 0.167 ± 0.018
G401; 0.00017 µM
  relative viability: 0.992 ± 0.036
G401; 0.00051 µM
  relative viability: 0.981 ± 0.017
G401; 0.00152 µM
  relative viability: 1.01 ± 0.018
G401; 0.00457 µM
  relative viability: 0.982 ± 0.025
G401; 0.01372 µM
  relative viability: 1.006 ± 0.0088
G401; 0.04115 µM
  relative viability: 0.974 ± 0.04
G401; 0.1235 µM
  relative viability: 0.919 ± 0.04
G401; 0.3704 µM
  relative viability: 0.848 ± 0.022
G401; 1.111 µM
  relative viability: 0.55 ± 0.021
G401; 3.333 µM
  relative viability: 0.434 ± 0.017
G401; 10 µM
  relative viability: 0.357 ± 0.033
HS729; 0.00017 µM
  relative viability: 1.01 ± 0.039
HS729; 0.00051 µM
  relative viability: 1.07 ± 0.062
HS729; 0.00152 µM
  relative viability: 1.04 ± 0.046
HS729; 0.00457 µM
  relative viability: 1.04 ± 0.02
HS729; 0.01372 µM
  relative viability: 1.016 ± 0.0094
HS729; 0.04115 µM
  relative viability: 1.014 ± 0.0094
HS729; 0.1235 µM
  relative viability: 0.945 ± 0.027
HS729; 0.3704 µM
  relative viability: 0.833 ± 0.025
HS729; 1.111 µM
  relative viability: 0.702 ± 0.028
HS729; 3.333 µM
  relative viability: 0.621 ± 0.028
HS729; 10 µM
  relative viability: 0.542 ± 0.036
KHOS-240S; 0.00017 µM
  relative viability: 0.992 ± 0.044
KHOS-240S; 0.00051 µM
  relative viability: 1 ± 0.03
KHOS-240S; 0.00152 µM
  relative viability: 1.03 ± 0.022
KHOS-240S; 0.00457 µM
  relative viability: 1.01 ± 0.04
KHOS-240S; 0.01372 µM
  relative viability: 0.977 ± 0.041
KHOS-240S; 0.04115 µM
  relative viability: 0.938 ± 0.044
KHOS-240S; 0.1235 µM
  relative viability: 0.913 ± 0.031
KHOS-240S; 0.3704 µM
  relative viability: 0.824 ± 0.0087
KHOS-240S; 1.111 µM
  relative viability: 0.738 ± 0.037
KHOS-240S; 3.333 µM
  relative viability: 0.72 ± 0.025
KHOS-240S; 10 µM
  relative viability: 0.6606 ± 0.0029
MES-SA; 0.00017 µM
  relative viability: 1.01 ± 0.019
MES-SA; 0.00051 µM
  relative viability: 0.958 ± 0.026
MES-SA; 0.00152 µM
  relative viability: 0.971 ± 0.021
MES-SA; 0.00457 µM
  relative viability: 0.9651 ± 0.0046
MES-SA; 0.01372 µM
  relative viability: 0.942 ± 0.021
MES-SA; 0.04115 µM
  relative viability: 0.939 ± 0.02
MES-SA; 0.1235 µM
  relative viability: 0.964 ± 0.051
MES-SA; 0.3704 µM
  relative viability: 0.936 ± 0.022
MES-SA; 1.111 µM
  relative viability: 0.765 ± 0.032
MES-SA; 3.333 µM
  relative viability: 0.597 ± 0.044
MES-SA; 10 µM
  relative viability: 0.454 ± 0.14
SK-ES-1; 0.00017 µM
  relative viability: 0.985 ± 0.02
SK-ES-1; 0.00051 µM
  relative viability: 1.01 ± 0.05
SK-ES-1; 0.00152 µM
  relative viability: 0.9845 ± 0.0066
SK-ES-1; 0.00457 µM
  relative viability: 0.958 ± 0.065
SK-ES-1; 0.01372 µM
  relative viability: 0.979 ± 0.066
SK-ES-1; 0.04115 µM
  relative viability: 0.938 ± 0.026
SK-ES-1; 0.1235 µM
  relative viability: 0.911 ± 0.074
SK-ES-1; 0.3704 µM
  relative viability: 0.881 ± 0.019
SK-ES-1; 1.111 µM
  relative viability: 0.791 ± 0.061
SK-ES-1; 3.333 µM
  relative viability: 0.689 ± 0.025
SK-ES-1; 10 µM
  relative viability: 0.593 ± 0.032
SK-LMS-1; 0.00017 µM
  relative viability: 1.02 ± 0.035
SK-LMS-1; 0.00051 µM
  relative viability: 1.01 ± 0.037
SK-LMS-1; 0.00152 µM
  relative viability: 1.04 ± 0.023
SK-LMS-1; 0.00457 µM
  relative viability: 1.05 ± 0.029
SK-LMS-1; 0.01372 µM
  relative viability: 0.998 ± 0.059
SK-LMS-1; 0.04115 µM
  relative viability: 1.04 ± 0.05
SK-LMS-1; 0.1235 µM
  relative viability: 0.997 ± 0.046
SK-LMS-1; 0.3704 µM
  relative viability: 1.04 ± 0.032
SK-LMS-1; 1.111 µM
  relative viability: 0.98 ± 0.033
SK-LMS-1; 3.333 µM
  relative viability: 0.953 ± 0.033
SK-LMS-1; 10 µM
  relative viability: 0.972 ± 0.049
SW1353; 0.00017 µM
  relative viability: 1.01 ± 0.046
SW1353; 0.00051 µM
  relative viability: 0.999 ± 0.033
SW1353; 0.00152 µM
  relative viability: 0.986 ± 0.062
SW1353; 0.00457 µM
  relative viability: 0.982 ± 0.016
SW1353; 0.01372 µM
  relative viability: 0.931 ± 0.043
SW1353; 0.04115 µM
  relative viability: 0.943 ± 0.0073
SW1353; 0.1235 µM
  relative viability: 0.902 ± 0.014
SW1353; 0.3704 µM
  relative viability: 0.872 ± 0.014
SW1353; 1.111 µM
  relative viability: 0.859 ± 0.05
SW1353; 3.333 µM
  relative viability: 0.83 ± 0.029
SW1353; 10 µM
  relative viability: 0.817 ± 0.032
SW684; 0.00017 µM
  relative viability: 1.13 ± 0.024
SW684; 0.00051 µM
  relative viability: 1.12 ± 0.08
SW684; 0.00152 µM
  relative viability: 1.14 ± 0.015
SW684; 0.00457 µM
  relative viability: 1.133 ± 0.0058
SW684; 0.01372 µM
  relative viability: 1.13 ± 0.012
SW684; 0.04115 µM
  relative viability: 1.13 ± 0.059
SW684; 0.1235 µM
  relative viability: 1.11 ± 0.049
SW684; 0.3704 µM
  relative viability: 1.14 ± 0.028
SW684; 1.111 µM
  relative viability: 1.16 ± 0.042
SW684; 3.333 µM
  relative viability: 1.19 ± 0.0064
SW684; 10 µM
  relative viability: 1.11 ± 0.043
SW872; 0.00017 µM
  relative viability: 1.07 ± 0.051
SW872; 0.00051 µM
  relative viability: 1.1 ± 0.02
SW872; 0.00152 µM
  relative viability: 1.08 ± 0.05
SW872; 0.00457 µM
  relative viability: 1.07 ± 0.024
SW872; 0.01372 µM
  relative viability: 1.05 ± 0.025
SW872; 0.04115 µM
  relative viability: 1.05 ± 0.054
SW872; 0.1235 µM
  relative viability: 1.03 ± 0.036
SW872; 0.3704 µM
  relative viability: 1.05 ± 0.047
SW872; 1.111 µM
  relative viability: 1.06 ± 0.043
SW872; 3.333 µM
  relative viability: 1.05 ± 0.043
SW872; 10 µM
  relative viability: 0.953 ± 0.01
SW982; 0.00017 µM
  relative viability: 1 ± 0.052
SW982; 0.00051 µM
  relative viability: 0.993 ± 0.033
SW982; 0.00152 µM
  relative viability: 0.998 ± 0.017
SW982; 0.00457 µM
  relative viability: 0.9857 ± 0.0098
SW982; 0.01372 µM
  relative viability: 0.989 ± 0.033
SW982; 0.04115 µM
  relative viability: 0.99 ± 0.023
SW982; 0.1235 µM
  relative viability: 0.982 ± 0.036
SW982; 0.3704 µM
  relative viability: 0.968 ± 0.035
SW982; 1.111 µM
  relative viability: 0.947 ± 0.034
SW982; 3.333 µM
  relative viability: 0.926 ± 0.018
SW982; 10 µM
  relative viability: 0.8573 ± 0.0049
SYO-1; 0.00017 µM
  relative viability: 1.07 ± 0.032
SYO-1; 0.00051 µM
  relative viability: 1.02 ± 0.065
SYO-1; 0.00152 µM
  relative viability: 1.02 ± 0.06
SYO-1; 0.00457 µM
  relative viability: 0.9627 ± 0.0016
SYO-1; 0.01372 µM
  relative viability: 0.864 ± 0.027
SYO-1; 0.04115 µM
  relative viability: 0.721 ± 0.029
SYO-1; 0.1235 µM
  relative viability: 0.606 ± 0.013
SYO-1; 0.3704 µM
  relative viability: 0.504 ± 0.033
SYO-1; 1.111 µM
  relative viability: 0.472 ± 0.029
SYO-1; 3.333 µM
  relative viability: 0.459 ± 0.024
SYO-1; 10 µM
  relative viability: 0.432 ± 0.017
